The supplement of paper PMC11619387
Converted amounts (≈) assume the structure as drawn. ± gives the standard deviation of the averaged measurements.

Key:
[1] = tested on: Pseudomonas aeruginosa PAO1-Xen41; test: EC50 of growth/kill rate concentration-effect curve
Method: (§1)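 Time-kill assays of bioluminescent P. aeruginosa PAO1-Xen41 (start ~5e6 CFU/mL) in 96-well plates at 37 °C, 150 rpm. Luminescence was read hourly for 20 h in cation-adjusted Mueller-Hinton broth, either non-conditioned (MH broth with or without supplements) or conditioned by one of 13 CF-associated species, then filter-sterilised and nutrient-replenished. Growth/kill rates came from log-linear regression of the exponential phase at 9-10 antibiotic concentrations, and Hill (Emax) models were fitted with drc for each replicate.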

[2] = tested on: Pseudomonas aeruginosa PAO1-Xen41; test: Hill coefficient of concentration-effect curve (unitless); higher = steeper concentration-effect curve
Method: as §1

[3] = tested on: Pseudomonas aeruginosa PAO1-Xen41; test: Emax, maximal drug effect on net growth rate (fitted lower asymptote) (per hour (slope of log luminescence)); higher = weaker maximal killing (less negative)
Method: as §1

CCC(C)CCCC(=O)N[C@@H](CCN)C(=O)N[C@H](C(=O)N[C@@H](CCN)C(=O)N[C@H]1CCNC(=O)[C@H]([C@@H](C)O)NC(=O)[C@H](CCN)NC(=O)[C@H](CCN)NC(=O)[C@H](CC(C)C)NC(=O)[C@@H](CC(C)C)NC(=O)[C@H](CCN)NC1=O)[C@@H](C)O (some centres undefined) [colistin]
Conditions	EC50, [1] [µg/mL]	Emax, [3]	Hill coefficient, [2]
medium (conditioned by secondary species or non-conditioned control): A. baumannii	3.78 ± 0.2 (≈ 3.27 µM)	-0.97093 ± 0.00027	5.23 ± 0.81
medium (conditioned by secondary species or non-conditioned control): A. fumigatus	4 ± 0.48 (≈ 3.47 µM)	-1.07 ± 0.017	0.809 ± 0.066
medium (conditioned by secondary species or non-conditioned control): A. xylosoxidans	3.71 ± 0.15 (≈ 3.21 µM)	-0.971 ± 0.03	4.77 ± 3.3
medium (conditioned by secondary species or non-conditioned control): B. cepacia	2.64 ± 0.39 (≈ 2.28 µM)	-1.015 ± 0.01	1.13 ± 0.069
medium (conditioned by secondary species or non-conditioned control): C. albicans	1.65 ± 0.22 (≈ 1.43 µM)	-0.9963 ± 0.0082	1.39 ± 0.045
medium (conditioned by secondary species or non-conditioned control): H. influenzae	0.634 ± 0.041 (≈ 0.549 µM)	-0.1151 ± 0.00013	7.12 ± 1.7
medium (conditioned by secondary species or non-conditioned control): M. abcessus	1.56 ± 0.68 (≈ 1.35 µM)	-0.976 ± 0.038	2.24 ± 1.8
medium (conditioned by secondary species or non-conditioned control): M. avium	1.04 ± 0.26 (≈ 0.899 µM)	-0.954 ± 0.039	1.72 ± 1.2
medium (conditioned by secondary species or non-conditioned control): M. catarrhalis	0.325 ± 0.0094 (≈ 0.282 µM)	-0.139 ± 0.023	14.6 ± 1.9
medium (conditioned by secondary species or non-conditioned control): MH broth	1.45 ± 0.83 (≈ 1.26 µM)	-0.963 ± 0.058	2.54 ± 2.5
medium (conditioned by secondary species or non-conditioned control): MH broth + ADC	0.607 ± 0.059	-0.901 ± 0.049	11.8 ± 5.4
medium (conditioned by secondary species or non-conditioned control): MH broth + LHB + NAD	0.324 ± 0.02	-0.156 ± 0.03	12.4 ± 1.2
medium (conditioned by secondary species or non-conditioned control): MH broth + glucose	1.22 ± 0.29	-0.9802 ± 0.006	2.92 ± 2.2
medium (conditioned by secondary species or non-conditioned control): R. mannitolilytica	1.32 ± 0.35 (≈ 1.14 µM)	-0.958 ± 0.034	1.77 ± 0.85
medium (conditioned by secondary species or non-conditioned control): S. aureus	1.08 ± 0.27 (≈ 0.939 µM)	-0.966 ± 0.021	2.47 ± 1
medium (conditioned by secondary species or non-conditioned control): S. maltophilia	3.83 ± 0.04 (≈ 3.31 µM)	-0.97063 ± 8.3e-05	7.36 ± 1.5
medium (conditioned by secondary species or non-conditioned control): S. pneumoniae	0.325 ± 0.034 (≈ 0.281 µM)	-0.117 ± 0.0031	7.9 ± 2.4

NC[C@H]1O[C@H](O[C@H]2[C@H](O)[C@@H](O[C@H]3O[C@H](CO)[C@@H](O)[C@H](N)[C@H]3O)[C@H](N)C[C@@H]2N)[C@H](N)C[C@@H]1O [tobramycin]
Conditions	EC50, [1] [µg/mL]	Emax, [3]	Hill coefficient, [2]
medium (conditioned by secondary species or non-conditioned control): A. baumannii	0.257 ± 0.0043 (≈ 0.55 µM)	-0.121 ± 0.0078	16.7 ± 2.5
medium (conditioned by secondary species or non-conditioned control): A. fumigatus	0.7033 ± 0.0034 (≈ 1.5 µM)	-0.188 ± 0.0083	4.28 ± 0.12
medium (conditioned by secondary species or non-conditioned control): A. xylosoxidans	0.2759 ± 0.0025 (≈ 0.59 µM)	-0.157 ± 0.018	14.8 ± 1.3
medium (conditioned by secondary species or non-conditioned control): B. cepacia	0.144 ± 0.0027 (≈ 0.308 µM)	-0.131 ± 0.015	10.6 ± 0.37
medium (conditioned by secondary species or non-conditioned control): C. albicans	0.565 ± 0.011 (≈ 1.21 µM)	-0.214 ± 0.024	3.52 ± 0.41
medium (conditioned by secondary species or non-conditioned control): H. influenzae	0.185 ± 0.033 (≈ 0.397 µM)	-0.126 ± 0.053	14.4 ± 6.6
medium (conditioned by secondary species or non-conditioned control): M. abcessus	0.135 ± 0.02 (≈ 0.288 µM)	-0.095 ± 0.019	4.76 ± 2.6
medium (conditioned by secondary species or non-conditioned control): M. avium	0.201 ± 0.0085 (≈ 0.429 µM)	-0.17 ± 0.019	9.2 ± 1.7
medium (conditioned by secondary species or non-conditioned control): M. catarrhalis	0.145 ± 0.0072 (≈ 0.31 µM)	-0.134 ± 0.043	9.95 ± 1.6
medium (conditioned by secondary species or non-conditioned control): MH broth	0.136 ± 0.024 (≈ 0.29 µM)	-0.122 ± 0.022	5.72 ± 2.2
medium (conditioned by secondary species or non-conditioned control): MH broth + ADC	0.197 ± 0.0065	-0.172 ± 0.018	11.3 ± 2.3
medium (conditioned by secondary species or non-conditioned control): MH broth + LHB + NAD	0.138 ± 0.0033	-0.116 ± 0.02	10.7 ± 1.3
medium (conditioned by secondary species or non-conditioned control): MH broth + glucose	0.393 ± 0.0069	-0.21 ± 0.017	3.39 ± 0.69
medium (conditioned by secondary species or non-conditioned control): R. mannitolilytica	0.0784 ± 0.0077 (≈ 0.168 µM)	-0.107 ± 0.018	8.12 ± 2.7
medium (conditioned by secondary species or non-conditioned control): S. aureus	0.0695 ± 0.0024 (≈ 0.149 µM)	-0.121 ± 0.018	10 ± 1.5
medium (conditioned by secondary species or non-conditioned control): S. maltophilia	0.137 ± 0.0019 (≈ 0.293 µM)	-0.197 ± 0.021	6.76 ± 0.86
medium (conditioned by secondary species or non-conditioned control): S. pneumoniae	0.471 ± 0.055 (≈ 1.01 µM)	-0.128 ± 0.032	12.4 ± 5.3

CC(C)(O/N=C(\C(=O)N[C@@H]1C(=O)N2C(C(=O)[O-])=C(C[n+]3ccccc3)CS[C@H]12)c1csc(N)n1)C(=O)O [ceftazidime]
Conditions	EC50, [1] [µg/mL]	Emax, [3]	Hill coefficient, [2]
medium (conditioned by secondary species or non-conditioned control): A. baumannii	1.62 ± 0.039 (≈ 2.96 µM)	-0.122 ± 0.0077	2.12 ± 0.098
medium (conditioned by secondary species or non-conditioned control): A. fumigatus	2.05 ± 0.14 (≈ 3.75 µM)	-0.109 ± 0.027	3.33 ± 0.43
medium (conditioned by secondary species or non-conditioned control): A. xylosoxidans	1.6 ± 0.047 (≈ 2.92 µM)	-0.132 ± 0.016	2.19 ± 0.054
medium (conditioned by secondary species or non-conditioned control): B. cepacia	1.15 ± 0.058 (≈ 2.11 µM)	-0.138 ± 0.018	2.53 ± 0.4
medium (conditioned by secondary species or non-conditioned control): C. albicans	2.02 ± 0.5 (≈ 3.69 µM)	-0.126 ± 0.056	3.16 ± 1.2
medium (conditioned by secondary species or non-conditioned control): H. influenzae	1.86 ± 0.085 (≈ 3.41 µM)	-0.223 ± 0.019	2.268 ± 0.019
medium (conditioned by secondary species or non-conditioned control): M. abcessus	1.17 ± 0.025 (≈ 2.15 µM)	-0.0538 ± 0.0067	3.08 ± 0.15
medium (conditioned by secondary species or non-conditioned control): M. avium	1.19 ± 0.071 (≈ 2.19 µM)	-0.0876 ± 0.01	3.59 ± 0.82
medium (conditioned by secondary species or non-conditioned control): M. catarrhalis	1.12 ± 0.053 (≈ 2.05 µM)	-0.166 ± 0.011	3.76 ± 0.41
medium (conditioned by secondary species or non-conditioned control): MH broth	1.28 ± 0.022 (≈ 2.33 µM)	-0.0573 ± 0.0065	3 ± 0.07
medium (conditioned by secondary species or non-conditioned control): MH broth + ADC	1.27 ± 0.076	-0.0561 ± 0.013	3.55 ± 0.87
medium (conditioned by secondary species or non-conditioned control): MH broth + LHB + NAD	0.743 ± 0.031	-0.133 ± 0.0093	5.89 ± 0.45
medium (conditioned by secondary species or non-conditioned control): MH broth + glucose	1.71 ± 0.045	-0.0864 ± 0.02	2.61 ± 0.17
medium (conditioned by secondary species or non-conditioned control): R. mannitolilytica	1.067 ± 0.006 (≈ 1.95 µM)	-0.0734 ± 0.0022	3.02 ± 0.14
medium (conditioned by secondary species or non-conditioned control): S. aureus	1.12 ± 0.0094 (≈ 2.05 µM)	-0.069 ± 0.0092	3.04 ± 0.091
medium (conditioned by secondary species or non-conditioned control): S. maltophilia	0.702 ± 0.02 (≈ 1.28 µM)	-0.139 ± 0.0081	3.32 ± 0.053
medium (conditioned by secondary species or non-conditioned control): S. pneumoniae	1.71 ± 0.031 (≈ 3.12 µM)	-0.159 ± 0.011	3.31 ± 0.11

CO[C@H]1/C=C/O[C@@]2(C)Oc3c(C)c(O)c4c(O)c(c(/C=N/N5CCN(C)CC5)c(O)c4c3C2=O)NC(=O)/C(C)=C\C=C\[C@H](C)[C@H](O)[C@@H](C)[C@@H](O)[C@@H](C)[C@H](OC(C)=O)[C@@H]1C [rifampicin]
Conditions	EC50, [1] [µg/mL]	Emax, [3]	Hill coefficient, [2]
medium (conditioned by secondary species or non-conditioned control): A. baumannii	58.4 ± 7.1 (≈ 71 µM)	-0.428 ± 0.0089	2.64 ± 0.59
medium (conditioned by secondary species or non-conditioned control): A. fumigatus	16.6 ± 1.4 (≈ 20.2 µM)	-0.427 ± 0.039	1.865 ± 0.018
medium (conditioned by secondary species or non-conditioned control): A. xylosoxidans	60.8 ± 6.4 (≈ 73.9 µM)	-0.447 ± 0.0084	3.63 ± 0.45
medium (conditioned by secondary species or non-conditioned control): B. cepacia	53.9 ± 5 (≈ 65.4 µM)	-0.4437 ± 0.0044	4.03 ± 0.44
medium (conditioned by secondary species or non-conditioned control): C. albicans	26.5 ± 3.1 (≈ 32.2 µM)	-0.543 ± 0.034	2.68 ± 0.74
medium (conditioned by secondary species or non-conditioned control): H. influenzae	18.7 ± 3.9 (≈ 22.7 µM)	-0.165 ± 0.024	5.03 ± 4.8
medium (conditioned by secondary species or non-conditioned control): M. abcessus	43.2 ± 6 (≈ 52.5 µM)	-0.468 ± 0.021	2.15 ± 0.5
medium (conditioned by secondary species or non-conditioned control): M. avium	72 ± 20 (≈ 87.5 µM)	-1.04 ± 0.058	0.999 ± 0.14
medium (conditioned by secondary species or non-conditioned control): M. catarrhalis	58.7 ± 8.3 (≈ 71.4 µM)	-0.151 ± 0.0049	2.74 ± 0.12
medium (conditioned by secondary species or non-conditioned control): MH broth	31.7 ± 8.1 (≈ 38.5 µM)	-0.425 ± 0.016	2.61 ± 0.61
medium (conditioned by secondary species or non-conditioned control): MH broth + ADC	83.3 ± 34	-1.1 ± 0.11	0.89 ± 0.074
medium (conditioned by secondary species or non-conditioned control): MH broth + LHB + NAD	25.2 ± 3	-0.141 ± 0.026	3.8 ± 0.97
medium (conditioned by secondary species or non-conditioned control): MH broth + glucose	26.7 ± 2.7	-0.552 ± 0.023	2.46 ± 0.46
medium (conditioned by secondary species or non-conditioned control): R. mannitolilytica	40.4 ± 3.4 (≈ 49 µM)	-0.4494 ± 0.0013	5.28 ± 1.3
medium (conditioned by secondary species or non-conditioned control): S. aureus	43.6 ± 17 (≈ 53 µM)	-0.461 ± 0.029	2.1 ± 0.68
medium (conditioned by secondary species or non-conditioned control): S. maltophilia	51.8 ± 1 (≈ 62.9 µM)	-0.437 ± 0.0072	3.3 ± 0.12
medium (conditioned by secondary species or non-conditioned control): S. pneumoniae	20.8 ± 1.6 (≈ 25.3 µM)	-0.142 ± 0.0056	4.69 ± 1.2
